Where a name gives a salt, the structure may show the parent alone. Read-outs that look alike come from different tables or passages of the source.
Key:
PAF receptor = target: T1, PAF receptor (Oryctolagus cuniculus, UniProt G1TEI7); assay: Binding test using [3H]-PAF (PAF receptor binding test); design: species or system rabbit
T1 construct: Cell membrane fraction of rabbit platelets was prepared; from tissue; host or cells: rabbit platelets (cell membrane fraction)
Experimental: Binding Test Using [^3H]-PAF (PAF receptor binding test)
Cell membrane fraction of rabbit platelets was prepared in accordance with the method by Hwang et al (Biochemistry; 22; 4756, (1983)). In 10 mM Tris buffer containing 0.25% bovine serum albumin, 50 mg of this membrane fraction was suspended and tritium-labelled PAF [^3H]-PAF; 0.4 nM) and a test compound were added thereto. After incubating the resulting mixture at 25°C for 60 minutes, the mixture was subjected to filtration through a filter paper made of glass fibers. The filter paper was washed with cold Tris buffer three times and then transferred to a vial. A scintillator was added thereto and the dose of radioactivity was measured with a liquid scintillation counter. The inhibition rate (binding ability) of the test compound was calculated according to the following equation and IC50 values were determined by interpolation. Inhibition Rate (%) = {1 - [((A - B))/((C - B))]} x 100 [formula] (wherein A represents amount bound in the presence of the compound, B represents amount bound by non-specific binding which is the dose of [^3H]-PAF bound radioactivity in the presence of 1 µM of PAF, and C represents total amount bound which is the dose of [^3H]-PAF bound radioactivity.
As a control agent, WEB2086 (Japanese Laid-open Patent Application (Kokai) No. 65-176591) disclosed as a PAF-antagonist was used.

rabbit platelets = rabbit platelets (Oryctolagus cuniculus, UniProt G1TEI7); assay: in vitro platelet agglutination inhibition test (PAF-induced); format: cell-based; conditions: rabbit platelet-rich plasma, PAF final concentration 10 ng/ml, 37°C; read-out: PAF-Induced Platelet Aggregation IC50 (converted)
rabbit platelets, sequence (G1TEI7 1-342): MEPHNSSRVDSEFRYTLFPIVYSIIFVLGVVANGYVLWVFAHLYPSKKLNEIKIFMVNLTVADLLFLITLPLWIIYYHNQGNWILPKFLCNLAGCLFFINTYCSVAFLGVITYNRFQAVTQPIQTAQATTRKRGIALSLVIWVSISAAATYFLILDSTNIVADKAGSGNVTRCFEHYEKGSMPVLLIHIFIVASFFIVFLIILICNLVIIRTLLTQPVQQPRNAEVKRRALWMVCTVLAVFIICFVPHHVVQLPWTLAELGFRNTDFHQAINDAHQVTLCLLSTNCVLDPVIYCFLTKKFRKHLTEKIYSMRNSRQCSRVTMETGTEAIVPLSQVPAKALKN
Experimental: To determine the PAF-antagonizing property of the compounds, the PAF-induced agglutination of rabbit platelets in vitro is utilized. To obtain platelet-rich plasma (PRP), venous blood is taken from rabbit auricular vein into a plastic centrifugal tube containing 1.0% sodium citrate solution. The ratio of sodium citrate solution to blood is 1:10. The obtained citrate-containing blood is centrifuged at 70 x g (625 rpm) at room temperature for 20 minutes and the PRP in the upper layer is transferred to another plastic tube. The remaining lower layer is further centrifuged at 1500 x g (2800 rpm) for 10 minutes and the platelet poor plasma (PPP) in the upper layer is recovered. The platelet agglutination is measured by using aggregometer commercially available from Niko Bioscience, Inc. An aliquote of the PRP is poured into a cubette for measurement. Immediately thereafter, aspirin, creatinin phosphate and creatinin phosphokinase are added to final concentrations of 0.1 mM, 7 mM and 45 U/ml, respectively. Then a solution of a test compound is added and the resulting mixture is stirred at 37°C for 2 minutes. To the resultant, PAF (final concentration: 10 ng/ml) is added to induce platelet aggregation. The platelet aggregation rate is calculated from the relative maximum value in each aggregation curve taking the transmittance of PPP as the maximum aggregation (100% aggregation). Using the aggregation rate when physiological saline was added as a control, the inhibition rate which was the ratio of the aggregation rate when the test compound was added to the control was calculated and the IC50 values were determined by interpolation.

[1] = test system: passive cutaneous anaphylaxis (PCA); assay: Test for antiallergic action: rat passive cutaneous anaphylaxis (PCA) reaction; format: in vivo; conditions: rats, oral, 50 mg/kg in olive oil, 1 hour before antigen challenge, read-out: Inhibition Rate (%) Anti-PCA
Experimental: The antiallergic action was evaluated by passive cutaneous anaphylaxis (PCA) test using rats. The test was carried out using Wister male rats having body weights of 150 - 200 g. Physiological saline containing anti-dinitrophenyl group (DNP) mouse IgE monoclonal antibody (commercially available from Seikagaku Kogyo Co., Ltd.) was intracutaneously injected in the skin of the back of each rat. Twenty three hours later, a suspension of the test compound in olive oil was orally administered at a dose of 50 mg/kg to each rat. One hour later, 0.5 ml of physiological saline containing 2 mg/ml of ovalbumin modified with dinitrophenyl hapten and 1% Evans blue were administered to each rat via femoral vein. Thirty minutes later, the rat was killed by cutting the carotid artery. The skin was peeled off and the portion stained in blue was cut out. The cut out portion was minced in […] and the pigment was extracted at 60°C for 48 hours. The minced skin was removed by centrifugation (1500 x g, 10 min.) and the absorbance at 620 nm of the supernatant was measured. Based on a preliminarily prepared calibration curve, the pigment leaked to the topical portion was quantified. As a control, olive oil alone was administered and the ratio of the amount of the pigment in test groups to the amount of the pigment in control group is expressed as inhibition rate.

histamine = assay: Histamine-antagonizing action: histamine-induced skin pigment leakage in rats; format: in vivo; conditions: Rattus norvegicus, oral, 50 mg/kg in olive oil, 1 hour before intracutaneous histamine (50 µl of 900 µM), read-out: Inhibition Rate (%) Antihistamine
Experimental: A suspension of a test compound in olive oil was orally administered at a dose of 50 mg/kg to each rat of the same kind as those used in 1. One hour later, physiological saline containing 1% Evans blue was intravenously administered at a dose of 3 ml/kg. Immediately thereafter, 50 µl of 900 µM histamine solution was intracutaneously administered to each rat. Thirty minutes later, the pigment in the blue-stained portion in the skin was extracted and quantified as mentioned above. Using the amount of the pigment when olive oil was administered as control, the inhibition rate which is the ratio of the amount of the pigment when the test compound was administered to the control was calculated.

[2] = test system: PAF-induced Bronchial Hyperresponsiveness; assay: PAF-induced bronchial hyperresponsiveness model in guinea pigs; format: in vivo; conditions: oral, ratio of Ach threshold value after/before PAF inhalation
Experimental: The test was carried out using Hartley male guinea pigs having body weights of 300 - 400 g.
Guinea pigs were retained on body plethysmo boxes without anesthesia and the respiratory resistances (Rrs) were determined by osscilation method. […] The Ach threshold value which is required for the Rrs to reach 1.5 cm H2O/ml/sec was determined. […] The Ach threshold value means the value calculated taking the value when a guinea pig is made to inhale 1000 ug/ml of Ach aerosol for 1 minute as 1 unit. The above-described operation was carried out using Animal Ast (registered trademark) commercially available from Chest M. I. Co., Ltd.
By the method of A), the bronchial responsiveness of guinea pigs, that is, the Ach threshold values were determined. Subsequently, each animal was made to inhale aerosol of 100 µg/ml of PAF solution for 10 minutes. Forty minutes after the completion of the inhalation, the bronchial responsiveness was again measured by the method of A). The bronchial hyperresponsiveness was detected based on the ratio between the Ach threshold value before and after the inhalation of PAF (Ach respiration threshold value after inhalation of PAF/Ach respiration threshold value before inhalation of […]; Post/Pre value). That is, if the bronchial hyperresponsiveness is strongly promoted, the Post/Pre value is lower than 1.0, and if it is not promoted, the Post/Pre value is about 1.0. A suspension of a test compound in olive oil was orally administered to each guinea pig and the determined Post/Pre value was compared with that of the control group to which olive oil was administered to evaluate the inhibition effect. […]

[3] = rabbit platelet membrane fraction, [3H]-PAF 0.4 nM, 25°C, 60 minutes, read-out: Receptor Binding Inhibition IC50 (converted)

T1 sequence (G1TEI7 1-342): as above

SMILES | IC50 (PAF receptor; [3]) | IC50 (rabbit platelets) | inhibition at 50 mg/kg [1] | inhibition at 50 mg/kg (histamine) | Post/Pre ([2]; Dose 0.1 mg/kg) | Post/Pre ([2]; Dose 0.3 mg/kg) | Post/Pre ([2]; Dose 1 mg/kg) | Post/Pre ([2]; Dose 3 mg/kg) | IC50 (PAF receptor)
Cc1nnc2c(=O)n(CCCN3CCC(=C(c4ccccc4)c4ccccc4)CC3)c3ccccc3n12 [Compound 4, 4,5-dihydro-1-methyl-5-[3-[4-(diphenylmethylene)piperidin-1-yl]propyl][1,2,4]triazolo[4,3-a] quinoxalin-4(5H)-one] | 2040 nM | 4080 nM | 44% | 76% | – | – | – | – | –
Cc1nnc2n1-c1ccccc1N(CCCN1CCN(C(c3ccc(F)cc3)c3ccc(F)cc3)CC1)C2 [Compound 45, 4,5-dihydro-1-methyl-5-[3-[4-[bis(4-fluorophenyl)methyl]piperazin-1-yl]propyl] [1,2,4]triazolo[4,3-a]quinoxaline] | 622 nM | – | 49% | 43% | – | – | – | – | –
Cc1nnc2n1-c1ccccc1N(CCCN1CCC(=C(c3ccccc3)c3ccccc3)CC1)C2 [Compound 46, 4,5-dihydro-1-methyl-5-[3-[4-(diphenylmethylene)piperidin-1-yl]propyl] [1,2,4]triazolo[4,3-a]quinoxaline] | 378 nM | – | 65% | 72% | 1.14 | 1.64 | – | – | –
Cc1nnc2n1-c1ccccc1N(CCCN1CCC(c3c[nH]c4ccccc34)CC1)C2 [Compound 49, 4,5-dihydro-1-methyl-5-[3-[4-(3-indolyl)piperidine-1-yl]propyl] [1,2,4]triazolo[4,3-a]quinoxaline] | 3990 nM | – | 58% | 65% | – | – | – | – | –
CCc1nnc2n1-c1ccccc1N(CCCN1CCC(c3c[nH]c4ccccc34)CC1)C2 [Compound 52, 1-ethyl-4,5-dihydro-5-[3-[4-(3-indolyl)piperidin-1-yl]propyl] [1,2,4]triazolo[4,3-a]quinoxaline] | 7940 nM | 12300 nM | 65% | 47% | – | – | 1.37 | – | –
Cc1nnc2n1-c1ccccc1N(CCCN1CCC(Nc3nc4ccccc4n3Cc3ccc(F)cc3)CC1)C2 [Compound 73, 4,5-dihydro-1-methyl-5-[3-[4-[1-(4-fluorobenzyl)benzimidazol-2-ylamino]-piperidin-1-yl]propyl][1,2,4]triazolo[4,3-a] quinoxaline] | 5630 nM | 8170 nM | – | – | – | – | 1.18 | – | –
Cc1nnc2n1-c1ccccc1N(CCCN1CCC(C(O)(c3ccc(F)cc3)c3ccc(F)cc3)CC1)C2 [Compound 75, 4,5-dihydro-1-methyl-5-[3-[4-[hydroxybis(4-fluorophenyl)methyl]piperidin-1-yl]propyl][1,2,4]triazolo[4,3-a] quinoxaline tartaric acid salt] | 603 nM | 309 nM | 42% | 19% | – | – | – | – | –
Cc1nnc2n(CCCN3CCN(C(c4ccccc4)c4ccccc4)CC3)c3ccccc3n12 [Compound 189, 3-methyl-9-[3-[4-(diphenylmethyl)piperazin-1-yl]propyl]-9H-[1,2,4]triazolo[4,3-a]benzimidazole dihydrochloride] | 260 nM | 577 nM | 43% | 57% | – | – | – | – | –
Cc1nnc2n(CCCN3CCC(c4c[nH]c5ccccc45)CC3)c3ccccc3n12.O=C(O)/C=C/C(=O)O [Compound 192, 3-methyl-9-[3-[4-(3-indolyl)piperidin-1-yl]propyl]-9H-[1,2,4]triazolo[4,3-a]benzimidazole fumaric acid salt] | 1310 nM | – | 74% | – | – | – | 1.81 | – | –
Cc1nnc2n(CCCN3CCC(C(O)(c4ccc(F)cc4)c4ccc(F)cc4)CC3)c3ccccc3n12 [Compound 199, 3-methyl-9-[3-[4-[hydroxybis(4-fluorophenyl)methyl]piperidin-1-yl]propyl]-9H-[1,2,4]triazolo[4,3-a]benzimidazole fumaric acid salt] | 55.4 nM | 190 nM | 48% | – | – | – | – | – | –
Cc1nnc2n(CCCN3CCC(c4c[nH]c5ccccc45)CC3)c3cc(Cl)ccc3n12 [Compound 205, 3-methyl-7-chloro-9-[3-[4-(3-indolyl)piperidin-1-yl]propyl]-9H-[1,2,4]triazolo[4,3-a]benzimidazole] | 2910 nM | 5150 nM | – | – | – | – | – | – | –
Cc1nnc2n(CCCN3CCC(=C4c5ccccc5C=Cc5ccccc54)CC3)c3ccccc3n12 [Compound 206, 3-methyl-9-[3-[4-(5H-dibenzo[a,d]cyclohepten-5-ylidene)piperidin-1-yl]propyl]-9H-[1,2,4]triazolo[4,3-a]benzimidazole] | 1810 nM | 4320 nM | – | – | – | – | – | – | –
Cc1nnc2n1-c1ccccc1N(CCCN1CCN(C(c3ccccc3)c3ccc(Cl)cc3)CC1)CC2 (stereo not drawn) [Compound 214, 5,6-dihydro-1-methyl-6-[3-[4-[(4-chlorophenyl)phenylmethyl]piperazin-1-yl]propyl]-4H[1,2,4]triazolo[4,3-a][1,5]benzodiazepine fumaric acid salt] | – | 6220 nM | 75% | – | – | – | – | – | –
Cc1nnc2n1-c1sc(CCC(=O)N3CCOCC3)cc1C(c1ccccc1Cl)=NC2 [WEB2086, reference compound] | – | – | – | – | – | – | – | 0.89 | 110 nM

From EP0536419B1, “TRICYCLIC TRIAZOLE DERIVATIVES, PRODUCTION AND USE THEREOF” (TORAY INDUSTRIES, INC., priority 1991, dated 1992)
